In publication PMC9968064, “First Synthesis of DBU-Conjugated Cationic Carbohydrate Derivatives and Investigation of Their Antibacterial and Antifungal Activity” (International Journal of Molecular Sciences, 2023):
Entries after “also recorded” stand apart in the source; their conditions may differ.

Legend:
Format in all cases: cell-based
[1] = tested on: Staphylococcus aureus ssp. aureus (ATCC 6538); assay: MIC determination (antibacterial susceptibility test, CLSI / Hungarian Pharmacopeia); conditions: for MIC: Staphylococcus aureus, ATCC6538, tested range 6.25–100 µg/mL; for MIC Staphylococcus aureus (ATCC 6538): tested range 6.25–100 µg/mL
Procedure: (§1) The antimicrobial activity of twenty-two cationic hexopyranoside-amidinium salts (3, 10, 11, 12, 21, 22, 23, 24, 29, 30, 32, 37, 38, 45, 46, 47, 48, 49, 50, 51, 52 and 53) were compared in susceptibility tests (Table 2). The effectiveness of all compounds was tested on Staphylococcus aureus ssp. aureus (ATCC 6538), Escherichia coli (ATCC 8739) and Candida albicans (ATCC 10231). We tested the antimicrobial activity of the compounds at the concentration range of 6.25–100 µg/mL.
(§2) The detection of the antibacterial and antifungal effects of the tested compounds and the determination of the minimum inhibitory concentration (MIC) were carried out based on the method of CLSI [48] and Hungarian Pharmacopeia (chapters VIII. 2.6.12–13.).
(§3) For the antimicrobial studies, we used three human pathogens as test organisms: Candida albicans (ATCC 10231), Staphylococcus aureus subspecies aureus (ATCC 6538) and Escherichia coli (ATCC 8739).
(§4) Staphylococcus aureus subspecies aureus and Escherichia coli were cultured on tryptic soya agar (TSA) for 18–24 h at 37 °C. Candida albicans was cultured on Sabouraud dextrose agar (SDA) for 18–24 h at 37 °C. To obtain cells for suspension, we made cell suspensions from Staph. aureus, E. coli and C. albicans with the cotton swab suspension technique. The dilution of suspension was then made with 0.85% NaCl solution, absorbance being set to A600nm = 0.06. a volume of 10 μL of these suspensions contained ~4.5–6.0 × 10^4 colony forming unit (CFU) (bacteria) and ~1.5–2.0 × 10^3 CFU for yeast.
(§5) Tested agents were diluted with DMSO; the concentration of stock solutions was 4 mg/mL; and to ensure sterility, the closed sample containers were incubated at 35 °C for 1 h. The highest final concentration was 100 μg/mL.
(§6) Testing was performed in 24-well plates, and cell suspensions were prepared with 0.85% NaCl solution. Stock solutions were made from the agents with DMSO (100%). Final concentrations of used compounds were 6.25–100 µg/mL. […] After inoculation, plates were incubated at 35 °C, and results were then read visually after 18–24 h. If microbial growth could not be detected, results were read visually after 72 h. If there was no growth after 72 h, incubation was continued till the fifth day of the experiment and the results were read visually and with plate reader at 600 nm after 120 h.
(§7) The MIC value of a compound was defined as the minimal concentration that inhibits the growth of bacteria and yeasts comparing to the control. The results of the antibacterial and antifungal tests were read visually after 24, 48, 72 and 120 h. The microbial growth was measured by plate reader at 600 nm after 120 h.

[2] = tested on: Escherichia coli (ATCC 8739); assay: as above; conditions: for MIC: Escherichia coli, ATCC8739, tested range 6.25–100 µg/mL; for MIC Escherichia coli (ATCC 8739): tested range 6.25–100 µg/mL
Procedure: as §1, §2, §3, §4, §5, §6, §7

[3] = tested on: HaCaT (human keratinocyte) cell line; assay: MTT viability test on HaCaT cells; conditions: 24 h; for IC50: Homo sapiens, HaCaT, 50–3.125 µg/mL
Procedure: The cytotoxic effect of six selected compounds (3, 10, 12, 21, 22 and 29) with promising antimicrobial activity was studied on HaCaT (human keratinocyte) cell lines. Using the MTT-test, we determined the viability of the cells (Figure 3), and the half maximal inhibitory concentration (IC50) values of the compounds are summarized in Table 4. The duration of tests was 24 h; the examined concentrations were: 50–25–12.5–6.25–3.125 µg/mL. The IC50 value of a compound was defined as the concentration that inhibits cell growth by 50% relative to the control. […], the medium containing the inhibitor was removed, and 10 μL MTT solution was added to the cells. The plates were then incubated for two hours at 37 °C. The medium from the wells was then carefully aspirated, and MTT formazan dissolved with 100 μL of DMSO aided by gentle agitation on a shaker. After 10 min at room temperature, the absorbances were read at 570 nm by an automatic plate reader. The percentage of viability reflecting the respiratory potential of the cell population in each well was expressed as (absorbance of treated cells/absorbance of control cells) × 100. IC50 values of tested agents were determined by Graphpad (Prism) semi-log line fitting (graphpad.com (8)). The MTT test was performed after treatment and removal of inhibitors followed by the addition of 10 μL of MTT solution to the cells. We tested the toxic effect of compounds 3, 10, 12, 21, 22 and 29 on HaCaT cell line. HaCaT is a spontaneously transformed, aneuploid keratinocyte, an adherent cell type derived from the epithelium of Human […] adult skin. The cell line was immortalized in 1986 under low calcium and high-temperature conditions. Cells were cultured in DMEM medium (iBiotech, Szigetszentmiklós, Hungary) containing 10% fetal bovine serum (FBS, iBiotech, Szigetszentmiklós, Hungary) and 1% antibiotic-antimycotic mix (Penicillin–Streptomycin–Neomycin).

[4] = tested on: Candida albicans (ATCC 10231); assay: MIC determination (antifungal susceptibility test); conditions: Candida albicans, ATCC10231, tested range 6.25–100 µg/mL; read-out: MIC Candida albicans (ATCC 10231)
Procedure: as §1, §2, §3, §4, §5
as §6, with “Final concentrations of used compounds were 6.25–100 µg/mL.” left out
as §7

Structure (SMILES) | MIC [1] [µg/mL] | MIC [2] [µg/mL] | cytotoxic effect on HaCaT cells (in words) [3] | IC50 [3] [µg/mL] | MIC Staphylococcus aureus (ATCC 6538) [1] [µg/mL] | MIC Escherichia coli (ATCC 8739) [2] [µg/mL] | MIC [4] [µg/mL]
CO[C@H]1O[C@H](C[N+]2=C3CCCCCN3CCC2)[C@@H](OCc2ccccc2)[C@H](OC(=O)c2ccccc2)[C@H]1OC(=O)c1ccccc1 [Compound 3, 8-N-[methyl 6-deoxy-6-yl-2,3-di-O-benzoyl-4-O-benzyl-α-D-glucopyranoside]-1,8-diazabicyclo(5.4.0)undec-7-ene-iodide] | 6.25 to 50 | > 100 | strongest cytotoxic effect | 0.13 ± 0.06 |  |  | 
CCS[C@H]1O[C@H](C[N+]2=C3CCCCCN3CCC2)[C@@H](OCc2ccc3ccccc3c2)[C@H](OC(=O)c2ccccc2)[C@H]1OC(=O)c1ccccc1 [Compound 11] | > 100 | > 100 |  |  | >100 | >100 | > 100
CCS[C@H]1O[C@H](C[N+]2=C3CCCCCN3CCC2)[C@@H](OCc2ccc3ccccc3c2)[C@H](OC(=O)c2ccccc2)[C@H]1OCc1ccccc1 [Compound 12] | < 6.25 | > 100 | significant toxic effect; also recorded: cytotoxic | 4.26 ± 0.16 |  |  | 
O=C(O[C@@H]1[C@H](OC(=O)c2ccccc2)[C@@H](Sc2ccccc2)O[C@H](C[N+]2=C3CCCCCN3CCC2)[C@H]1OCc1ccc2ccccc2c1)c1ccccc1 [Compound 23] | > 100 | > 100 |  |  |  |  | > 100
O=C(O[C@H]1[C@@H](OCc2ccccc2)[C@H](OCc2ccc3ccccc3c2)[C@@H](C[N+]2=C3CCCCCN3CCC2)O[C@@H]1Sc1ccccc1)c1ccccc1 [Compound 24] | 6.25 to 50 | ≥ 100 |  |  |  |  | 
CCS[C@H]1O[C@H](C[N+]2=C3CCCCCN3CCC2)[C@@H](OCc2ccc3ccccc3c2)[C@@H](OC(=O)c2ccccc2)[C@H]1OC(=O)c1ccccc1 [Compound 30] |  | ≥ 100 |  |  |  |  | 
CCS[C@H]1O[C@H](C[N+]23CCN(CC2)CC3)[C@@H](OCc2ccc3ccccc3c2)[C@@H](OC(=O)c2ccccc2)[C@H]1OC(=O)c1ccccc1 [Compound 32] | 6.25 to 50 | ≥ 100 |  |  |  |  | > 100
c1ccc(CO[C@H]2[C@H](OCc3ccccc3)[C@@H](Sc3ccccc3)O[C@H](C[N+]3=C4CCCCCN4CCC3)[C@H]2OCc2ccc3ccccc3c2)cc1 [Compound 37] |  | > 100 |  |  |  |  | > 100
O=C(O[C@H]1[C@H](OC(=O)c2ccccc2)[C@@H](Sc2ccccc2)O[C@H](C[N+]2=C3CCCCCN3CCC2)[C@H]1OCc1ccc2ccccc2c1)c1ccccc1 [Compound 38] | > 100 | > 100 |  |  | >100 | >100 | > 100
CO[C@H]1O[C@H](C[N+]2=C3CCCCCN3CCC2)[C@@H](OCc2ccccc2)[C@H](O)[C@H]1O [Compound 45, 8-N-[methyl 6-deoxy-6-yl-4-O-benzyl-α-D-glucopyranoside]-1,8-diazabicyclo(5.4.0)undec-7-ene-chloride] | > 100 | > 100 |  |  | >100 | >100 | > 100
CCS[C@H]1O[C@H](C[N+]2=C3CCCCCN3CCC2)[C@@H](OCc2ccc3ccccc3c2)[C@H](O)[C@H]1O [Compound 46, 8-N-[ethyl 6-deoxy-6-yl-4-O-(2′-naphthyl)methyl-1-thio-α-D-glucopyranoside]-1,8-diazabicyclo(5.4.0)undec-7-ene-chloride] | > 100 | > 100 |  |  | >100 | >100 | > 100
CCS[C@H]1O[C@H](C[N+]2=C3CCCCCN3CCC2)[C@@H](O)[C@H](O)[C@H]1O [Compound 47, 8-N-[ethyl 6-deoxy-6-yl-1-thio-α-D-glucopyranoside]-1,8-diazabicyclo(5.4.0)undec-7-ene-chloride] | > 100 | > 100 |  |  | >100 | >100 | > 100
CCS[C@H]1O[C@H](C[N+]2=C3CCCCCN3CCC2)[C@@H](O)[C@H](OCc2ccccc2)[C@H]1OCc1ccccc1 [Compound 48, 8-N-[ethyl 2,3-di-O-benzyl-6-deoxy-6-yl-1-thio-α-D-glucopyranoside]-1,8-diazabicyclo(5.4.0)undec-7-ene-chloride] |  | > 100 |  |  |  |  | 
O[C@@H]1[C@H](OCc2ccccc2)[C@@H](Sc2ccccc2)O[C@H](C[N+]2=C3CCCCCN3CCC2)[C@H]1OCc1ccccc1 [Compound 49, 8-N-[phenyl 2,4-di-O-benzyl-6-deoxy-6-yl-1-thio-α-D-mannopyranoside]-1,8-diazabicyclo(5.4.0)undec-7-ene-chloride] | > 100 | > 100 |  |  | >100 | >100 | > 100
O[C@H]1[C@H](OCc2ccccc2)[C@H](OCc2ccccc2)[C@@H](Sc2ccccc2)O[C@@H]1C[N+]1=C2CCCCCN2CCC1 [Compound 50, 8-N-[phenyl 2,3-di-O-benzyl-6-deoxy-6-yl-1-thio-α-D-mannopyranoside]-1,8-diazabicyclo(5.4.0)undec-7-ene-chloride] |  | > 100 |  |  |  |  | 
O[C@@H]1[C@H](O)[C@@H](Sc2ccccc2)O[C@H](C[N+]2=C3CCCCCN3CCC2)[C@H]1OCc1ccc2ccccc2c1 [Compound 51, 8-N-[phenyl 6-deoxy-6-yl-4-O-(2′-naphthyl)methyl-1-thio-α-D-mannopyranoside]-1,8-diazabicyclo(5.4.0)undec-7-ene-chloride] | 6.25 to 50 | > 100 |  |  |  |  | 
O=C(O[C@H]1[C@@H](OCc2ccccc2)[C@H](O)[C@@H](C[N+]2=C3CCCCCN3CCC2)O[C@@H]1Sc1ccccc1)c1ccccc1 [Compound 52, 8-N-[phenyl 2-O-benzoyl-3-O-benzyl-6-deoxy-6-yl-1-thio-α-D-mannopyranoside]-1,8-diazabicyclo(5.4.0)undec-7-ene-chloride] | > 100 | > 100 |  |  |  |  | > 100
O[C@H]1[C@@H](OCc2ccccc2)[C@H](OCc2ccc3ccccc3c2)[C@@H](C[N+]2=C3CCCCCN3CCC2)O[C@@H]1Sc1ccccc1 [Compound 53, 8-N-[phenyl 3-O-benzyl-6-deoxy-6-yl-4-O-(2′-naphthyl)methyl-1-thio-α-D-mannopyranoside]-1,8-diazabicyclo(5.4.0)undec-7-ene-acetate] | 6.25 to 50 | > 100 |  |  |  |  | 6.25 to 50
